Ends that are not written are not given here. Peptide text beside a SMILES is read from it.
How the values were obtained:
Antibodies to HIV-1 [1] = assay: ELISA with peptide or peptide mixture as antigen, identifying HIV-1 positive sera; assay type: binding, human; conditions: single peptide, known HIV-1 positive sera, Table 3
Description: According to this test a peptide or a peptide mixture of the present invention is adsorbed onto the wells of a microtiter plate. The wells are then treated with sera to be tested. After washing, anti-human IgG labeled with peroxidase is added to the wells. The determination of the peroxidase is performed with a corresponding substrate, e.g. with o-phenylene diamine. Also in this procedure the peroxidase can be exchanged by another label, e.g. by a radioactive or fluorescence label.
(§1) Each well of the microtiter plate is saturated with 100 μl of a solution containing a peptide or mixture of peptides (5 μg/ml) and left overnight. The wells are emptied and washed twice with a washing buffer (Tris, 0.043M; NaCl, 0.5M; thimerosal, 0.01% w/v; Tween 20, 0.05% v/v; pH7.4). The wells are then saturated with 0.35 ml of washing buffer for 1 hr. at 37° C. and washed once with the same buffer. Serum samples to be analyzed are diluted with specimen buffer (washing buffer plus casein, 0.05% w/v). The wells are rinsed with washing buffer prior to the addition of the diluted serum sample (0.1 ml). These are left to incubate for 1 hr. at room temperature. The wells are then emptied, washed twice rapidly and then once for two minutes with washing buffer. […] The wells are then emptied and washed twice rapidly with washing buffer and then five times in which the buffer was in contact with the well 2 minutes per washing. The substrate solution (3,3', 5,5'-tetramethylbenzidine, 8 mg per ml of DMSO) is diluted with 100 volumes 0.1M citrate-acetate buffer, pH 5.6 containing 0.1% v/v of 30% H2 O2 and added to each well (0.1 ml per well). After 10 minutes the contents of each well is treated with 0.1 ml 2N H2 SO4 and the optical density read at 450 nm. All determinations are done in duplicate.

Antibodies to HIV-1 [2] = assay: ELISA, relative performance of cyclic and non-cyclic HIV-1 peptides at serum dilutions (optical density); assay type: binding, human
Description: Table 4 is provided to illustrate the sensitivity of cyclic versus non cyclic peptides in the ELISA test by comparing the results of some sera at various dilutions.
as §1

With CGKIEPLGVAPTKAKRRVVQREKR [Peptide 71] the “% Positive Sera Correctly Identified” value (Antibodies to HIV-1 [1]) was 83%.
In the case of “NH2 -GCSGKLICTTAVPWNAS-COOH (H-GCSGKLICTTAVPWNAS-OH; cysteine pairing not given here) [Peptide 77, gp 41 604-620]”, the ELISA optical density (Antibodies to HIV-1 [2]; serum specimen 87V103, dilution 1/50) is reported as 0.000 OPTICAL DENSITY UNITS, the ELISA optical density (Antibodies to HIV-1 [2]; serum specimen 1428, dilution 1/50) is reported as 0.926 OPTICAL DENSITY UNITS and the ELISA optical density (Antibodies to HIV-1 [2]; serum specimen M-5, dilution 1/50) is reported as 1.719 OPTICAL DENSITY UNITS. For the same molecule, the ELISA optical density (Antibodies to HIV-1 [2]; serum specimen M-5, dilution 1/100) was 1.459 OPTICAL DENSITY UNITS, the ELISA optical density (Antibodies to HIV-1 [2]; serum specimen M-5, dilution 1/200) was 1.248 OPTICAL DENSITY UNITS and the ELISA optical density (Antibodies to HIV-1 [2]; serum specimen M-5, dilution 1/400) was 0.959 OPTICAL DENSITY UNITS. The ELISA optical density (Antibodies to HIV-1 [2]; serum specimen M-5, dilution 1/800) was 0.057 OPTICAL DENSITY UNITS, the ELISA optical density (Antibodies to HIV-1 [2]; serum specimen M-7, dilution 1/50) was 0.142 OPTICAL DENSITY UNITS and the ELISA optical density (Antibodies to HIV-1 [2]; serum specimen M-7, dilution 1/100) was 0.025 OPTICAL DENSITY UNITS. It also gave an ELISA optical density (Antibodies to HIV-1 [2]; serum specimen M-7, dilution 1/200) of 0.007 OPTICAL DENSITY UNITS, an ELISA optical density (Antibodies to HIV-1 [2]; serum specimen M-7, dilution 1/400) of 0.001 OPTICAL DENSITY UNITS and an ELISA optical density (Antibodies to HIV-1 [2]; serum specimen M-7, dilution 1/800) of 0.000 OPTICAL DENSITY UNITS. It also gave an ELISA optical density (Antibodies to HIV-1 [2]; serum specimen M-8, dilution 1/50) of 0.795 OPTICAL DENSITY UNITS, an ELISA optical density (Antibodies to HIV-1 [2]; serum specimen M-8, dilution 1/100) of 0.507 OPTICAL DENSITY UNITS and an ELISA optical density (Antibodies to HIV-1 [2]; serum specimen M-8, dilution 1/200) of 0.376 OPTICAL DENSITY UNITS. For the same molecule, the ELISA optical density (Antibodies to HIV-1 [2]; serum specimen M-8, dilution 1/400) was 0.209 OPTICAL DENSITY UNITS, the ELISA optical density (Antibodies to HIV-1 [2]; serum specimen M-8, dilution 1/800) was 0.062 OPTICAL DENSITY UNITS and the ELISA optical density (Antibodies to HIV-1 [2]; serum specimen M-16, dilution 1/50) was 1.219 OPTICAL DENSITY UNITS. For the same molecule, the ELISA optical density (Antibodies to HIV-1 [2]; serum specimen M-16, dilution 1/100) was 0.962 OPTICAL DENSITY UNITS, the ELISA optical density (Antibodies to HIV-1 [2]; serum specimen M-16, dilution 1/200) was 0.613 OPTICAL DENSITY UNITS and the ELISA optical density (Antibodies to HIV-1 [2]; serum specimen M-16, dilution 1/400) was 0.301 OPTICAL DENSITY UNITS. For the same molecule, the ELISA optical density (Antibodies to HIV-1 [2]; serum specimen M-16, dilution 1/800) was 0.205 OPTICAL DENSITY UNITS and the “% Positive Sera Correctly Identified” value (Antibodies to HIV-1 [1]) was 100%.
“NH2 -CGYLKDQQLLGIWGCSGKLICTTAVPWNASWSNKSLEQI-COOH [Peptide 97]” was tested, and the “% Positive Sera Correctly Identified” value (Antibodies to HIV-1 [1]) was 100%.
For “NH2 -IWGCSGKLICTTAVPWNAS-COOH (H-IWGCSGKLICTTAVPWNAS-OH; cysteine pairing not given here) [Peptide 78, gp 41 602-620]”, the “% Positive Sera Correctly Identified” value (Antibodies to HIV-1 [1]) was 100%.
In the case of “NH2 -FAFAFGCSGKLICTTAVPWNASWSNKSLEQI-COOH [Peptide 91]”, the “% Positive Sera Correctly Identified” value (Antibodies to HIV-1 [1]) is reported as 94%.
With `CC[C@H](C)[C@H](NC(=O)[C@H](CCC(N)=O)NC(=O)[C@H](CCC(=O)O)NC(=O)[C@H](CC(C)C)NC(=O)[C@H](CO)NC(=O)[C@H](CCCCN)NC(=O)[C@H](CC(N)=O)NC(=O)[C@H](CO)NC(=O)[C@H](Cc1c[nH]c2ccccc12)NC(=O)[C@H](CO)NC(=O)[C@H](C)NC(=O)[C@H](CC(N)=O)NC(=O)[C@H](Cc1c[nH]c2ccccc12)NC(=O)[C@@H]1CCCN1C(=O)[C@@H](NC(=O)[C@H](C)NC(=O)[C@@H](NC(=O)[C@@H](NC(=O)[C@@H]1CSSC[C@H](NC(=O)CN)C(=O)N[C@@H](CO)C(=O)NCC(=O)N[C@@H](CCCCN)C(=O)N[C@@H](CC(C)C)C(=O)N[C@@H]([C@@H](C)CC)C(=O)N1)[C@@H](C)O)[C@@H](C)O)C(C)C)C(=O)O` [Peptide 96] (HELM PEPTIDE1{G.C.S.G.K.L.I.C.T.T.A.V.P.W.N.A.S.W.S.N.K.S.L.E.Q.I}$PEPTIDE1,PEPTIDE1,2:R3-8:R3$$$V2.0) the “% Positive Sera Correctly Identified” value (Antibodies to HIV-1 [1]) was 100%.
With “TKAKRRVVQREKRGAVGIGALFLGFLGAAGSG [Peptide 93]” the “% Positive Sera Correctly Identified” value (Antibodies to HIV-1 [1]) was 37%.
“NH2 -CGLGIWGCSGKLICTTAVPWNASWSNKSLEQI-COOH [Peptide 98]” was tested, and the “% Positive Sera Correctly Identified” value (Antibodies to HIV-1 [1]) was 100%.

From patent publication US6218102A, “Synthetic peptides and mixtures thereof for detecting HIV antibodies” (priority 1988, dated 2001)
